According to ChEMBL document CHEMBL5104193, “Hypoxia-Activated Prodrugs with Dual COX-2/CA Inhibitory Effects on Attenuating Cardiac Inflammation under Hypoxia” (J Med Chem, 2022):
Active and inactive are the calls of the source.

Legend:
[1] = system: H9c2; experiment: Protection against LPS/hypoxia induced apoptosis in rat H9c2 cells assessed as reduction in necrotic cells at 10 umol/L incubated for 4 hrs under hypoxia condition by AnnexinV-FITC/propidium iodide staining based flow cytometry analysis (reference value: 31.02%); type: functional; parameters: scale not given: the % may be the effect or the level left; conditions: dose 10 µmol/L, at 10 µM
[2] = system: H9c2; experiment: Protection against LPS/hypoxia induced apoptosis in rat H9c2 cells assessed as reduction in necrotic cells at 10 umol/L incubated for 4 hrs under hypoxia condition in presence of Indomethacin by AnnexinV-FITC/propidium iodide staining based flow cytometry analysis (reference value: 31.02%); type: functional; parameters: scale not given: the % may be the effect or the level left; conditions: dose 10 µmol/L, at 10 µM
[3] = system: H9c2; experiment: Protection against LPS/hypoxia induced apoptosis in rat H9c2 cells assessed as reduction in red fluorescence by confocal microscopy analysis; type: functional, cell-based
[4] = system: H9c2; experiment: Protection against LPS/hypoxia induced apoptosis in rat H9c2 cells assessed as reduction in red fluorescence in presence of indomethacin by confocal microscopy analysis; type: functional, cell-based
[5] = system: H9c2; experiment: Protection against LPS/hypoxia induced apoptosis in rat H9c2 cells assessed as reduction in green fluorescence in presence of indomethacin by confocal microscopy analysis; type: functional, cell-based
[6] = system: NTR; experiment: Stability of the compound assessed as NTR (unknown origin) mediated hydrolysis by measuring half life by UV spectrophotometry; type: ADME; conditions: human, NTR enzyme
[7] = system: H9c2; experiment: Anti-inflammatory activity in LPS/hypoxia induced rat H9c2 cells assessed as reduction of IL-6 protein expression at 10 uM in presence of indomethacin by Western blot analysis; type: functional, cell-based
[8] = system: H9c2; experiment: Anti-inflammatory activity in LPS/hypoxia induced rat H9c2 cells assessed as reduction of TNF-alpha protein expression at 10 uM in presence of indomethacin by Western blot analysis; type: functional, cell-based
[9] = system: H9c2; experiment: Anti-inflammatory activity in LPS/hypoxia induced cell injury in rat H9c2 cells assessed as reduction of IL-1beta protein expression at 10 uM in presence of indomethacin by Western blot analysis; type: functional, cell-based
[10] = system: H9c2; experiment: Anti-inflammatory activity in LPS/hypoxia induced rat H9c2 cells assessed as increase in VEGF expression at 10 uM in presence of indomethacin by Western blot analysis; type: functional, cell-based
[11] = system: H9c2; experiment: Anti-inflammatory activity in rat H9c2 cells assessed as downregulation of cytochrome C expression at 10 uM by Western blot analysis; type: functional, cell-based
[12] = system: H9c2; experiment: Anti-inflammatory activity in rat H9c2 cells assessed as downregulation of cytochrome C expression at 10 uM in presence of indomethacin by Western blot analysis; type: functional, cell-based
[13] = system: H9c2; experiment: Anti-inflammatory activity in rat H9c2 cells assessed as inhibition of endogenous IL-6 protein expression in presence of indomethacin by DAPI staining based immunofluorescence analysis; type: functional, cell-based
[14] = system: H9c2; experiment: Protection against LPS/hypoxia induced cell injury in rat H9c2 cells assessed as recovery of cell viability in presence of indomethacin by CCK-8 assay (reference value: 69.0%); type: functional
[15] = system: H9c2; experiment: Protection against LPS/hypoxia induced cell injury in rat H9c2 cells assessed as recovery of cell viability in presence of indomethacin and Na2WO4 by CCK-8 assay; type: functional, cell-based
[16] = system: H9c2; experiment: Reversal of LPS/hypoxia induced mitochondrial membrane potential loss in rat H9c2 cells in presence of indomethacin by JC-1 dye based flow cytometry analysis; type: functional, cell-based
[17] = system: H9c2; experiment: Reversal of LPS/hypoxia induced mitochondrial membrane potential loss in rat H9c2 cells assessed as increase in JC-1 polymer morphology in presence of indomethacin by JC-1 dye based flow cytometry analysis; type: functional, cell-based; conditions: time 20.0 min
[18] = system: H9c2; experiment: Reversal of ATP level in LPS/hypoxia induced rat H9c2 cells in presence of indomethacin by multimode plate reader analysis (reference value: 21.37 nmol/mg); type: functional
[19] = system: H9c2; experiment: Reversal of ATP level in LPS/hypoxia induced rat H9c2 cells in presence of indomethacin and Na2WO4 by multimode plate reader analysis; type: functional, cell-based
[20] = system: H9c2; experiment: Inhibition of intracellular ROS level in LPS/hypoxia induced rat H9c2 cells in presence of indomethacin by DCFH-DA probe based fluorescence confocal microscopy analysis; type: functional, cell-based
[21] = system: H9c2; experiment: Inhibition of intracellular ROS level in LPS/hypoxia induced rat H9c2 cells in presence of indomethacin and Na2WO4 by DCFH-DA probe based fluorescence confocal microscopy analysis; type: functional, cell-based
[22] = system: Rattus norvegicus; experiment: Antiinflammatory activity against LPS/talc powder induced pericarditic Wistar rat assessed as reduction in torsion T wave inversion at 20 mg/kg, ip pretreated for 2 hrs followed by LPS/tal powder stimulation measured after 48 hrs in presence of indomethacin by ECG analysis; type: functional, organism-based; conditions: time 50.0 hrs
[23] = system: Rattus norvegicus; experiment: Antiinflammatory activity against LPS/talc powder induced pericarditic Wistar rat assessed as reduction in U wave flattening at 20 mg/kg, ip pretreated for 2 hrs followed by LPS/tal powder stimulation measured after 48 hrs in presence of indomethacin by ECG analysis; type: functional, organism-based; conditions: time 50.0 hrs
[24] = system: Rattus norvegicus; experiment: Antiinflammatory activity against LPS/talc powder induced pericarditic Wistar rat assessed as reduction in heart swelling at 20 mg/kg, ip pretreated for 2 hrs followed by LPS/tal powder stimulation measured after 48 hrs in presence of indomethacin; type: functional, organism-based; conditions: time 50.0 hrs
[25] = system: Rattus norvegicus; experiment: Antiinflammatory activity against LPS/talc powder induced pericarditic Wistar rat assessed as elimination of pericardial effusion at 20 mg/kg, ip pretreated for 2 hrs followed by LPS/tal powder stimulation measured after 48 hrs in presence of indomethacin; type: functional, organism-based; conditions: time 50.0 hrs
[26] = system: Rattus norvegicus; experiment: Antiinflammatory activity in LPS/talc powder induced pericarditic Wistar rat assessed as increase in CK-MB level in serum at 20 mg/kg, ip pretreated for 2 hrs followed by LPS/tal powder stimulation measured after 48 hrs in presence of indomethacin (reference value: 4140+/-256.23 U/L); type: functional; conditions: time 50 hrs
[27] = system: Rattus norvegicus; experiment: Antiinflammatory activity in LPS/talc powder induced pericarditic Wistar rat assessed as increase in cTNI level in serum at 20 mg/kg, ip pretreated for 2 hrs followed by LPS/tal powder stimulation measured after 48 hrs in presence of indomethacin (reference value: 0.167+/-0.025 ng/ml); type: functional; conditions: time 50 hrs
[28] = Toxicity in Wistar rat assessed as change in ALT level in presence of indomethacin; conditions: in vivo
[29] = Toxicity in Wistar rat assessed as change in CRE level in presence of indomethacin; conditions: in vivo
[30] = Toxicity in Wistar rat assessed as change in BUN level in presence of indomethacin; conditions: in vivo

NS(=O)(=O)c1nnc(NC(=O)CCCCc2cn(CC(=O)O)nn2)s1
active: Activity [3] | Activity [4] | Activity [5] | Activity [7] | Activity [8] | Activity [9] | Activity [10] | Activity [11] | Activity [12] | Activity [13] | Activity [15] | Activity [16] | Activity [17] | Activity [19] | inhibition [20] | inhibition [21] | Activity [22] | Activity [23] | Activity [24] | Activity [25]
2620 U/L: Activity [26]
23.78%: Activity [1]
8.3 min: half-life [6]
9.61%: Activity [2]
91.8%: Activity [14]
0.121 ng/mL: Activity [27]
47.52 nmol/mg: Activity [18]
Toxic: Activity [28] | Activity [29] | Activity [30]
